Reference: patent US20240216412A1, “OXIDIZED NICOTINAMIDE ADENINE DINUCLEOTIDE (NAD+) PRECURSOR TREATMENT FOR HEART FAILURE ALLEVIATION INDEPENDENT OF MITOCHONDRIAL PROTEIN DEACETYLATION” (University of Washington, priority 2022, published 2024)

What was measured:
[1] = tested on: Complex I, Cytochrome C Oxidase, Citrate synthase; assay: Electron transport chain enzyme activities in heart homogenates; format: in vivo, mouse; conditions: TAC hearts, Sirt3Ko and WT heart lysate
Experimental: Enzyme Activities. Citrate synthase (CS), Complex I (CI) and Cytochrome C Oxidase (CIV), and Mrpp2 dehydrogenase activities were determined in heart tissue homogenates at 30° C. using a protocol adapted from previously published methods (Spinazzi et al., 2012). Briefly, for CS activity frozen cardiac tissue (25 mg) was homogenized at 4° C. in CelLytic™ MT Cell Lysis Reagent (C3228) and then incubated on ice for 30 minutes. The samples were then centrifuged at 10,000×g for 10 minutes at 4° C. and protein concentration determined. CS activity was analyzed in 100 mM Tris buffer containing 0.1% Triton X-100, pH 8.0 as previously described (Spinazzi et al., 2012). For CIV activity, 25 mg of cardiac tissue was homogenized at 4° C. in 50 mM potassium phosphate buffer containing 1 mM EDTA, and 0.1% Triton X-100 (pH 7.4; final concentration, 5 mg tissue/mL). The samples were incubated on ice for 30 minutes followed by centrifugation at 10,000×g for 10 minutes at 4° C. CIV activity was analyzed in 100 mM potassium phosphate buffer as previously described (Spinazzi et al., 2012). For Cl activity, 25 mg of cardiac tissue was homogenized at 4° C. in 50 mM potassium phosphate buffer containing 1 mM EDTA, and 0.1% Triton X-100 (pH 7.4; final concentration, 5 mg tissue/mL). The samples were incubated on ice for 30 minutes followed by centrifugation at 10,000×g for 10 minutes at 4° C. Cl activity was analyzed in 100 mM potassium phosphate buffer as previously described (Spinazzi et al., 2012). In parallel, a separate reactions containing the same quantity of reagents and sample but with the addition of 10 μl of 1 mM rotenone solution. The reactions were started by adding 6 μl of ubiquinone (10 mM), mix and follow the decrease of absorbance at 340 nm for 2 min. The dehydrogenase activity of Mrpp2 was measured as described (Falk et al., 2016) in the reverse direction for reduction of acetoacetyl-CoA (30 mM) to L-3-hydroxyacyl-CoA. The reaction was monitored as the decrease of absorbance at 340 nm.

[2] = tested on: NAD+ salvage pathway / NAD(H) redox in mouse heart; assay: Cardiac NAD+/NADH determination and targeted LC-MS metabolomics in TAC hearts; format: in vivo
Experimental: NAD^+/NADH determination. NAD^+ and NADH were determined in 8 mg heart tissue using BioAssay Systems EnzyChrom NAD^+/NAD Assay Kit (E2ND-100) per manufactures instructions.
Targeted Metabolomics. Analysis of metabolites was done by The Northwest Metabolomics Research Center at the University of Washington. Briefly, aqueous metabolites for targeted LC-MS profiling of heart tissue samples were extracted from frozen heart tissue (10 mg) by precipitating in 80:20% methanol:water. After centrifugation, the supernatant was transferred to LC/MS auto sampler vials (Thermo Fisher). The protein pellet was redissolved in 0.1M NaOH and protein concentration measured for normalization. Samples were first homogenized in 200 μL purified deionized water at 4° C., and then 800 μL of cold methanol. Afterwards samples were vortexed, stored for 30 minutes at −20° C., sonicated in an ice bath for 10 minutes, centrifuged for 15 min at 14,000 rpm and 4° C., and then 600 μL of supernatant was collected from each sample. […] Samples were transferred into LC vials and placed into a temperature controlled autosampler for LC-MS analysis.
LC-MS Assay. Targeted LC-MS metabolite analysis was performed on a duplex-LC-MS system composed of two Shimadzu UPLC pumps, CTC Analytics PAL HTC-xt temperature-controlled auto-sampler (set at 4° C.) and AB Sciex 6500+ Triple Quadrupole MS equipped with ESI ionization source (2). UPLC pumps were connected to the autosampler in parallel and were able to perform two chromatography separations independently from each other. Each sample was injected twice on two identical analytical columns (Waters XBridge BEH Amide XP) performing separations in hydrophilic interaction liquid chromatography (HILIC) mode. While one column was performing separation and MS data acquisition in ESI+ ionization mode, the other column was getting equilibrated for sample injection, chromatography separation and MS data acquisition in ESI-mode. Each chromatography separation was 18 minutes (total analysis time per sample was 36 minutes). MS data acquisition was performed in multiple-reaction-monitoring (MRM) mode. LC-MS system was controlled using AB Sciex Analyst 1.6.3 software. Measured MS peaks were integrated using AB Sciex MultiQuant 3.0.3 software. The LC-MS assay was targeting 361 metabolites (plus 2 spiked reference internal standards). Up to 192 metabolites (plus 2 spiked standards) were measured across the study set, and over 95% of measured metabolites were measured across all the samples. In the addition to the study samples, two sets of quality control (QC) samples were used to monitor the assay performance as well as data reproducibility. One QC [QC(I)] was a pooled human serum sample used to monitor system performance and the other QC [QC(S)] was pooled study samples and this QC was used to monitor data reproducibility. Each QC sample was injected per every 10 study samples. The data were well reproducible with a median CV of 7.0%.

NC(=O)c1ccc[n+]([C@@H]2O[C@H](CO)[C@@H](O)[C@H]2O)c1 [NR, Nicotinamide riboside chloride]
Activity of citrate synthase [1]: no change
Activity of complex I [1]: restored
Activity of cytochrome c oxidase (COIV) [1]: restored
Markers of lipid oxidation (oxidized glutathione) ([2]; TAC mice): decreased
Cardiac levels of NAD(H) ([2]; WT and Sirt3Ko hearts): increased
Cardiac levels of methyl-nicotinamide (MeNAM) ([2]; WT and Sirt3Ko hearts): increased
Cardiac levels of nicotinamide (NAM) ([2]; WT and Sirt3Ko hearts): increased
NAD+/NADH ratio ([2]; both genotypes, after TAC): normalized
Metabolites indicative of myocardial fibrosis (hydroxyproline, putrescine, spermidine) ([2]; myocardial tissue of TAC hearts, vs vehicle): reduced
